Source: US20080242649A1, “New Combination 665” (priority 2007, published 2008)
Counter-ions that a name gives are not always drawn.

Legend:
Adrenergic β2 = target: T1, Adrenergic β2 (Homo sapiens, UniProt P07550); experiment: Adrenergic β2 mediated cAMP production in H292 cells (AlphaScreen); type: cell-based
T1 construct: Adherent H292 cells were removed from tissue culture flasks; endogenous in cells; host or cells: H292 cells
Procedure: Adrenergic β2 mediated cAMP production
H292 cells were grown in 225 cm2 flasks incubator at 37° C., 5% CO2 in RPMI medium containing, 10% (v/v) FBS (foetal bovine serum) and 2 mM L-glutamine.
Adherent H292 cells were removed from tissue culture flasks by treatment with Accutase™ cell detachment solution for 15 minutes. Flasks were incubated for 15 minutes in a humidified incubator at 37° C., 5% CO2. Detached cells were re-suspended in RPMI media (containing 10% (v/v) FBS and 2 mM L-glutamine) at 0.05×10^6 cells per mL. 5000 cells in 100 μL were added to each well of a tissue-culture-treated 96-well plate and the cells incubated overnight in a humidified incubator at 37° C., 5% CO2. The culture media was removed and cells were washed twice with 100 μL assay buffer and replaced with 50 μL assay buffer (HBSS solution containing 10 mM HEPES pH7.4 and 5 mM glucose). […]
The concentration of cAMP (cyclic adenosine monophosphate) in the cell lysate was determined using AlphaScreen™ methodology. […] The AlphaScreen™ signal was measured using an EnVision spectrophotometer (Perkin-Elmer Inc.) with the recommended manufacturer's settings. cAMP concentrations were determined by reference to a calibration curve determined in the same experiment using standard cAMP concentrations. […] Intrinsic Activity was expressed as a fraction relative to the maximum activity determined for formoterol in each experiment. […]

[1] = test system: histamine-induced bronchoconstriction; experiment: Lung function in anaesthetized guinea-pigs, histamine challenge; type: in vivo, Dunkin-Hartley guinea pig; conditions: for inhibition of histamine-induced bronchoconstriction: histamine 5 μg/kg i.v.; for increase in bronchoconstriction: histamine 5 μg/kg, vehicle 1100±161%
Procedure: (§1) Evaluation of Lung Function in Anaesthetized Guinea-Pigs
(§2) Male Dunkin-Hartley guinea pigs (300-600 g) were weighed and dosed with vehicle (0.05M phosphate, 0.1% Tween 80, 0.6% saline, pH 6) or compound via the intratracheal route under recoverable gaseous anaesthesia (5% halothane in oxygen). Animals were dosed with compound or vehicle two hours prior to the administration of histamine or methacholine.
(§3) Guinea pigs were anaesthetized with pentobarbitone (1 mL/kg of 60 mg/mL solution i.p.) approximately 30 minutes prior to the first bronchoconstrictor administration. The trachea was cannulated and the animal ventilated using a constant volume respiratory pump (Harvard Rodent Ventilator model 683) at a rate of 60 breath/min and a tidal volume of 5 ml/kg. A jugular vein was cannulated for the administration of histamine, methacholine or maintenance anaesthetic (0.1 mL of pentobarbitone solution, 60 mg/mL, as required).
(§4) The animals were transferred to a Flexivent System (SCIREQ, Montreal, Canada) in order to measure airway resistance. The animals were ventilated (quasi-sinusoidal ventilation pattern) at 60 breaths/min at a tidal volume of 5 mL/kg. A positive end expiratory pressure of 2-3 cmH2O was applied. Respiratory resistance was measured using the Flexivent “snapshot” facility (1 second duration, 1 Hz frequency). Once stable baseline resistance value had been obtained the animals were given histamine or methacholine in ascending doses (0.5, 1, 2, 3 and 5 μg/kg, i.v.) at approximately 4-minute intervals via the jugular catheter. After each administration of bronchoconstrictor the peak resistance value was recorded. Guinea pigs were euthanized with approximately 1.0 mL pentobarbitone sodium (Euthatal) intravenously after the completion of the lung function measurements. Percentage bronchoprotection produced by a compound was calculated at each dose of brochoconstrictor as follows:
(§5) Where % change Rveh is the mean of the maximum percentage change in airway resistance in the vehicle treated group. The results reported were measured after 5 μg/kg histamine or methacholine and were expressed as percentage bronchoprotection (mean ±s.e.mean).

[2] = test system: methacholine-induced bronchoconstriction; experiment: Lung function in anaesthetized guinea-pigs, methacholine challenge; type: in vivo, Dunkin-Hartley guinea pig; conditions: for inhibition of methacholine-induced bronchoconstriction: methacholine 5 μg/kg i.v.; for increase in resistance: methacholine 5 μg/kg, vehicle 1898±211%
Procedure: as §1, §2, §3, §4, §5

[3] = test system: LPS-induced intra-alveolar neutrophilia; experiment: Intra-alveolar neutrophil migration after intratracheal LPS challenge in the CRL:CD rat; type: in vivo
Procedure: Evaluation of Compound Activity on Intra-Alveolar Neutrophil Migration after Intratracheal Challenge with Lipopolysacharride (LPS) in the CRL:CD Rat
LPS challenge in CRL:CD rats causes an influx of neutrophils into the lungs. Under recoverable gaseous anaesthesia (5% isoflorane in oxygen), rats were dosed via the intratracheal route with vehicle (0.05M phosphate, 0.1% Tween 80, 0.6% saline, pH 6), or compound 30 min before challenge with an intratracheal dose of 10 μg/kg LPS.
The rats (250-400 g) were euthanized 4 hr after LPS challenge with 1 mL pentobarbitone sodium. A tracheotomy was performed and a cannula inserted. The airway was then lavaged using 3 mL Isoton at room temperature. The Isoton (BeckmanCoulter, High Wycombe, UK) was left in the airway for 10 seconds before being removed. The bronchio-alveolar lavage (BAL) fluid containing inflammatory cells was placed into a 15 mL centrifuge tube and kept on ice. This process was repeated three times. An aliquot of BAL fluid was removed and the inflammatory cells were counted on Sysmex (Sysmex UK, Milton Keynes). Neutrophils were expressed in millions/animal (mean ±s.e.mean).

[4] = compound A 1 μg/kg intratracheal 2 h before
[5] = compound A 1 μg/kg intratracheal
[6] = compound A 27 μg/kg intratracheal 2 h before
[7] = compound A 27 μg/kg intratracheal

T1 sequence (P07550 whole entry): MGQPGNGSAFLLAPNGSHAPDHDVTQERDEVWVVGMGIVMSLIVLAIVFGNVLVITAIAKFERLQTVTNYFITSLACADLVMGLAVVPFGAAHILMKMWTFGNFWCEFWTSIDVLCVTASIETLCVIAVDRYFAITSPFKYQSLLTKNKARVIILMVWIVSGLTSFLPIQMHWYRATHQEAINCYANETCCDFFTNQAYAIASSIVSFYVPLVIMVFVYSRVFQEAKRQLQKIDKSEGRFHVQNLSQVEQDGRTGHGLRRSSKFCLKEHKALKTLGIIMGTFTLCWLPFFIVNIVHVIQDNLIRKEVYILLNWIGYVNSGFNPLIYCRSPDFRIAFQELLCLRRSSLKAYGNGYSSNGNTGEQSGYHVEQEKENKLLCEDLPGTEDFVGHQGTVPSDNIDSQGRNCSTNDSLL

## CCN(CC)CCN(CCNCCc1ccc(O)c2[nH]c(=O)sc12)C(=O)CCOCCc1cccc2ccccc12 [Compound A, N-[2-(Diethylamino)ethyl]-N-(2-{[2-(4-hydroxy-2-oxo-2,3-dihydro-1,3-benzothiazol-7-yl)ethyl]amino}ethyl)-3-[2-(1-naphthyl)ethoxy]propanamide dihydrobromide]
Adrenergic β2; H292 cells, cAMP, 300 μM rolipram, read-out: β2 pEC50 (converted)
  EC50: 6.31 nM
Adrenergic β2; Intrinsic Activity as fraction relative to maximum activity of formoterol
  β2 Int Act: 0.8
[1]; [4]
  inhibition of histamine-induced bronchoconstriction: 49%
[1]; [5]
  increase in bronchoconstriction: 544±60%
[1]; [6]
  inhibition of histamine-induced bronchoconstriction: 87%
[1]; [7]
  increase in bronchoconstriction: 140±36%
[2]; [4]
  inhibition of methacholine-induced bronchoconstriction: 15%
[2]; [5]
  increase in resistance: 1619±235%
[2]; [6]
  inhibition of methacholine-induced bronchoconstriction: 82%
[2]; [7]
  increase in resistance: 347±71%
[3]; Compound W study, compound A 0.1 μg/kg intratracheal 30 min prior to LPS
  inhibition of neutrophilia: 43%
[3]; Compound W study, compound A 0.1 μg/kg, vehicle/LPS 11±1.8
  neutrophils in BAL: 5.0±0.70 million/animal
[3]; Compound X study, compound A 0.1 μg/kg intratracheal 30 min prior to LPS
  inhibition of neutrophilia: 26%
[3]; Compound X study, compound A 0.1 μg/kg, vehicle/LPS 12±1.7
  neutrophils in BAL: 9.1±1.1 million/animal
[3]; budesonide study, compound A 0.2 μg/kg intratracheal 30 min prior to LPS 10 μg/kg, BAL 4 hr
  inhibition of neutrophilia: 45%
[3]; budesonide study, compound A 0.2 μg/kg intratracheal, mean ±s.e.mean, vehicle/LPS 14±1.6
  neutrophils in BAL: 7.8±0.71 million/animal
